Consider two molecules from patent US9169241B2, “Quinolinyloxyphenylsulfonamides” (Max-Planck-Gesellschaft Zur Forderung der Wissenschaften …, priority 2009, dated 2015).

Type in all cases: cell-based
Experiment [1] addresses T1, wild type AXL (wtAXL) receptor tyrosine kinase (Homo sapiens, UniProt P30530).
T1 construct: WtAXL cDNA was cloned into vector pLXSN(ESK) and transfected into Phoenix E packaging cells; expressed in transfected cells; host or cells: NIH3T3 N7 (mouse fibroblasts), retrovirally infected, clone 22
T1 sequence (P30530 26-894): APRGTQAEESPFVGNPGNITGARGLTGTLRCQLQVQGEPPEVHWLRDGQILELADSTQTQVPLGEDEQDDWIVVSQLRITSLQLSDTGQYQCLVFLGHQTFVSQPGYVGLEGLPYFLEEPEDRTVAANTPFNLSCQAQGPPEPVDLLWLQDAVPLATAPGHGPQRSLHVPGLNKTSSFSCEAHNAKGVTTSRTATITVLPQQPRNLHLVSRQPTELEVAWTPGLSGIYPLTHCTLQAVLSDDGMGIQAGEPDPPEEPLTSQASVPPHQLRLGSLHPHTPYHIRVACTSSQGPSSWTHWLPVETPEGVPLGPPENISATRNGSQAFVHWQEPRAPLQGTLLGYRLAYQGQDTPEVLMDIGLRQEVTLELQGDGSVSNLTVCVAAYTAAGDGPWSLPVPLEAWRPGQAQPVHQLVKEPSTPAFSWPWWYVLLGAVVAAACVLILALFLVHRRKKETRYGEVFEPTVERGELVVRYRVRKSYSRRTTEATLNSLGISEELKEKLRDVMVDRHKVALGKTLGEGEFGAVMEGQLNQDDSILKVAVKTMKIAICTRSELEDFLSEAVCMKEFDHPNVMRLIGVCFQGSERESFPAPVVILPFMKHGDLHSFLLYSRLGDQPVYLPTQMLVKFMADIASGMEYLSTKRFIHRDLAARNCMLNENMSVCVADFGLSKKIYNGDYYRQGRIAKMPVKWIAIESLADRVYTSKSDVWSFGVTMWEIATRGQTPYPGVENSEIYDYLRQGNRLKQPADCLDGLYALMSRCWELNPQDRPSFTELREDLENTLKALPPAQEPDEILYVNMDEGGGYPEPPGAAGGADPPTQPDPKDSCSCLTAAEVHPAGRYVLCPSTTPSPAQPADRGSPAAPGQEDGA
The experiment is described as follows: NIH-3T3-AXL cellular kinase assay (pY-AXL-ELISA). The settings on record: NIH-3T3-AXL (clone 22) cells, serum depleted, compounds 1 h; Table Ia. An outline of the steps: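 Phospho-AXL was quantified by ELISA in lysates (4G10-biotin, streptavidin-AP, AttoPhos, 430/560 nm read at 90 min). The cells were monoclonal NIH3T3 lines stably transduced with human wtAXL, exposed to serial compound dilutions for 1 h before lysis.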
In general terms: An ELISA detects its analyte on a solid surface through an enzyme-linked reagent.

Experiment [2] deals with PC3. Nature of the experiment: Matrigel outgrowth assay/branching assay. The settings on record: IC100, PC3; Table Vb. An outline of the steps:
(§1)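 Matrigel 3 mg/ml, polymerized 1 h 37° C; 5000 cells/well + cmpd 3.125/1.56/0.78 μM or DMSO. Imaged 48/72/96 h, 5× objective. Positive = total branching block.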

Experiment [3] has as its system SK-MEL28. Nature of the experiment: Matrigel outgrowth assay/branching assay. To be noted: IC100, SK-MEL28; Table Vb. Summed up: as §1
Experiment [4] deals with U87MG. The experiment is described as follows: Matrigel outgrowth assay/branching assay. The settings on record: IC100, U87MG; Table Vb. Summed up: as §1
Experiment [5] deals with NCI-H1299. The experiment is described as follows: Matrigel outgrowth assay/branching assay. To be noted: IC100, NCI-H1299; Table Vb. Summed up: as §1
Experiment [6] relates to U373. The experiment is described as follows: Matrigel outgrowth assay/branching assay. The settings on record: IC100, U373; Table Vb. Summed up: as §1
Experiment [7] has as its system U138. The experiment is described as follows: Matrigel outgrowth assay/branching assay. To be noted: IC100, U138; Table Vb. An outline of the steps:
as §1

Molecules are shown by their SMILES.

`COc1cc2c(Oc3ccc(NS(=O)(=O)c4cc(F)ccc4F)cc3F)ccnc2cc1OCCCN1CCN(C)CC1` [Example 12, 2,5-Difluoro-N-(3-fluoro-4-{6-methoxy-7-[3-(4-methyl-piperazin-1-yl)-propoxy]-quinolin-4-yloxy}-phenyl)-benzenesulfonamide] showed an IC50 in experiment [1] of less than 500 nM. The “Total branching inhibition in Matrigel PC3” value in experiment [2] is on record as “++ (IC100≦12.5 μM)”. In experiment [3], the “Total branching inhibition in Matrigel SK-MEL28” value was “++ (IC100≦12.5 μM)”. In experiment [4], the “Total branching inhibition in Matrigel U87MG” value is on record as “+ (IC100>12.5 μM)”. The “Total branching inhibition in Matrigel NCI-H1299” value in experiment [5] was “++ (IC100≦12.5 μM)”. Also, the “Total branching inhibition in Matrigel U373” value in experiment [6] is given as “++ (IC100≦12.5 μM)”. Further, the “Total branching inhibition in Matrigel U138” value in experiment [7] is recorded as “++ (IC100≦12.5 μM)”.

Consider `COC(=O)c1sccc1S(=O)(=O)Nc1ccc(Oc2ccnc3cc(OCCCN4CCCC(C)C4)c(OC)cc23)c(F)c1` (centres unmarked) [Example 66, 3-(3-Fluoro-4-{6-methoxy-7-[3-(3-methyl-piperidin-1-yl)-propoxy]-quinolin-4-yloxy}-phenylsulfamoyl)-thiophene-2-carboxylic acid methyl ester], for which the IC50 in experiment [1] was less than 500 nM. In addition, in experiment [2], the “Total branching inhibition in Matrigel PC3” value is given as “++ (IC100≦12.5 μM)”. For the same molecule, the “Total branching inhibition in Matrigel SK-MEL28” value in experiment [3] is “++ (IC100≦12.5 μM)”. The “Total branching inhibition in Matrigel U87MG” value in experiment [4] was “++ (IC100≦12.5 μM)”. In addition, the “Total branching inhibition in Matrigel NCI-H1299” value in experiment [5] is given as “++ (IC100≦12.5 μM)”. Further, in experiment [6], the “Total branching inhibition in Matrigel U373” value was “++ (IC100≦12.5 μM)”. Also, in experiment [7], the “Total branching inhibition in Matrigel U138” value was “++ (IC100≦12.5 μM)”.

One may read the IC50 as the midpoint of a concentration-inhibition curve. Lower therefore signals greater potency in that assay.
